# Test results taken from US6750235B1, “Pramipexole as a treatment for cocaine craving” (The General Hospital Corporation, priority 1999, dated 2004).
# Experiment: Case report: treatment of cocaine craving using pramipexole (patient)
# Format: in vivo, human
# Conditions: one patient; lamotrigine up to 200 mg, before pramipexole was added
structure (smiles),measurement,value
Nc1nnc(-c2cccc(Cl)c2Cl)c(N)n1 [lamotrigine],mood (depression),modest improvement
